Here are results for three molecules from patent US6319929A, “Suksdorfin analogs, compositions thereof, and methods for making and using thereof” (priority 1998, dated 2001).

“Also recorded” adds a separate entry of the source. Where two headings read alike, the source gives them in different places.

For data set [1], the system named is HIV-1 replication in H9 cells. The data set can be described thus: Combination study of suksdorfin with AZT, ddI and ddC: HIV-1 replication in acutely infected H9 cells. It counts as cell-based, HIV-1 (IIIB). On the procedure: HIV Growth Inhibition Assay: The T cell line, H9, and the promonocytic cell line, U937, were maintained separately in continuous culture with complete medium (RPMI 1640 and […] fetal calf serum (FCS) at 5% CO2 and 37° C. Cell lines were used in experiments only when in log phase of growth; whereas, uninfected peripheral blood mononuclear cells (PBMCs) were first stimulated with PHA (1 μg/ml) for 3 days. All cell targets were incubated with HIV-1 (IIIB isolate, TCID50 10 ^4 IU/mi, at a multiplicity of infection of 0.1-0.01 IU/cell) for 1 hour at 37° C. and 5% CO2. The cell lines and PBMCs were washed thoroughly to remove unabsorbed virions and resuspended at 4×10^5 cells/ml in complete medium or complete medium with 10% v/v interleukin […] IL-2, respectively. Aliquots ( ml) were placed in wells of 24-well culture plates containing an equal volume of test compound (diluted in the appropriate culture medium). After incubation for 4 days at 37° C., cell density of uninfected cultures was determined by counting cells in a Coulter counter to assess toxicity of the test compound. A p24 antigen ELISA assay was used to determine the level of virus released in the medium of the HIV-infected cultures. The p24 antigen assay uses a HIV-1 anti-p24 specific monoclonal antibody as the capture antibody coated-on 96-well plates. Following a sample incubation period, rabbit serum containing antibodies for HIV-1 p24 is used to tag any p24 "captured" onto the microtiter well surface. […] The cut-off for the p24 ELISA assay is 12. pg/ml. P24 in the culture medium was quantitated against a standard curve containing known amounts of p24. […] Both the EC50 and IC50 values were calculated by plotting drug concentration versus percent inhibition, and then identifying a 50% inhibition value from the graph.
Combination Study: The experimental design is identical to the growth inhibition assay except that various concentrations of AZT, ddI or ddC were also added to cultures of acutely HIV-1 infected H9 cells that either have or have no received different concentrations of suksdorfin. The concentrations of AZT, ddI and ddC were 5 ten-fold dilutions starting at 1 μg/ml. [drawing 104] [drawing 105]

Data set [2] has as its system uninfected H9 cells. The data set can be described thus: Combination study of suksdorfin with AZT, ddI and ddC: toxicity to uninfected H9 cells. Type of data set: cell-based. As to conditions: for IC50: Homo sapiens. On the procedure:
Pharm. Asso. […] Aliquots ( ml) were placed in wells of 24-well culture plates containing an equal volume of test compound (diluted in the appropriate culture medium). After incubation for 4 days at 37° C., cell density of uninfected cultures was determined by counting cells in a Coulter counter to assess toxicity of the test compound. A p24 antigen ELISA assay was used to determine the level of virus released in the medium of the HIV-infected cultures. The p24 antigen assay uses a HIV-1 anti-p24 specific monoclonal antibody as the capture antibody coated-on 96-well plates. Following a sample incubation period, rabbit serum containing antibodies for HIV-1 p24 is used to tag any p24 "captured" onto the microtiter well surface. […] The cut-off for the p24 ELISA assay is 12. pg/ml. P24 in the culture medium was quantitated against a standard curve containing known amounts of p24. The effective (EC50) and inhibitory (IC50) concentrations (for anti-HIV activity and cytotoxicity, respectively) were determined graphically.
Combination Study: The experimental design is identical to the growth inhibition assay except that various concentrations of AZT, ddI or ddC were also added to cultures of acutely HIV-1 infected H9 cells that either have or have no received different concentrations of suksdorfin.

Data set [3] deals with HIV-2 replication in HUT-78 cells. In words: Suppression of virus replication during HIV-2 infection of HUT-78 cells (reverse transcriptase assay). Type of data set: cell-based. From the text:
During this experiment, HIV-2 was used. The basic assay system is identical to that used for HIV-1 except that a different virus stock was used and rather than a p24 antigen ELISA determination a reverse transcriptase assay was used to detect the presence of the virus.

Data set [4] has as its system U937 cells. The data set can be described thus: Toxicity to uninfected U937 cells. Type of data set: cell-based. As to conditions: Homo sapiens, U-937; U937 cell line. On the procedure: Suksdorfin was also tested on an acute HIV-1 infection of the promonocytic cell line, U937. This was done again to determine drug specificity but this time on a monocytic cell line.
HIV Growth Inhibition Assay: The T cell line, H9, and the promonocytic cell line, U937, were maintained separately in continuous culture with complete medium (RPMI 1640 and […] fetal calf serum (FCS) at 5% CO2 and 37° C. Cell lines were used in experiments only when in log phase of growth; whereas, uninfected peripheral blood mononuclear cells (PBMCs) were first stimulated with PHA (1 μg/ml) for 3 days. All cell targets were incubated with HIV-1 (IIIB isolate, TCID50 10 ^4 IU/mi, at a multiplicity of infection of 0.1-0.01 IU/cell) for 1 hour at 37° C. and 5% CO2. The cell lines and PBMCs were washed thoroughly to remove unabsorbed virions and resuspended at 4×10^5 cells/ml in complete medium or complete medium with 10% v/v interleukin (Pettinato, et al. J. Amer. Pharm. Asso. […] After incubation for 4 days at 37° C., cell density of uninfected cultures was determined by counting cells in a Coulter counter to assess toxicity of the test compound. […] P24 in the culture medium was quantitated against a standard curve containing known amounts of p24. The effective (EC50) and inhibitory (IC50) concentrations (for anti-HIV activity and cytotoxicity, respectively) were determined graphically. […]

In the case of `Cc1cn([C@H]2C[C@H](N=[N+]=[N-])[C@@H](CO)O2)c(=O)[nH]c1=O` [AZT, azidothymidine, reference compound], the EC50 (as a rule, the concentration giving half of the maximal effect) in data set [1] (Human immunodeficiency virus 1, H9) turned out to be 0.04 µg/mL. Besides, the IC50 (in general, the point on the concentration scale where inhibition reaches its midpoint) in data set [1] (Human immunodeficiency virus 1, H9, read-out: IC50 (μM)^b) was 0.04 µg/mL; in data set [2] (H9), over 1 µg/mL; in data set [2] (H9, read-out: IC50 (μM)^a), over 1 µg/mL. Besides, the “Therapeutic Index” value is over 25 in data set [1] (Table 5, combinations with 4 μg/ml suksdorfin) and over 25 in data set [1] (Table 16, combinations with 4 μg/ml suksdorfin). Further, the “decrease of EC50 in presence of suksdorfin” value in data set [1] (with 4 μg/ml suksdorfin, H9) is recorded as 400 fold. Besides, the “increase of TI value in presence of suksdorfin” value in data set [1] (with 4 μg/ml suksdorfin, H9) is listed as 400 fold.

For the molecule `CC1(C)Oc2ccc3ccc(=O)oc3c2[C@@H](OC(=O)[C@@]23CC[C@@](C)(C(=O)O2)C3(C)C)[C@H]1OC(=O)[C@@]12CC[C@@](C)(C(=O)O1)C2(C)C` [Compound 16, 3',4'-Di-O-(-)-Camphanoyl-(+)-cis-Khellactone], in data set [3], the “effect on HIV-2 replication (in words)” value was “no effect on the virus replication of HIV-2”.

For the molecule `CC(=O)O[C@@H]1[C@H](OC(=O)CC(C)C)c2c(ccc3ccc(=O)oc23)OC1(C)C` [Suksdorfin, suksdorfin], the “synergy with AZT, ddI and ddC” value was “act synergistically with AZT, ddI and ddC” in data set [1] (H9); “potentiate the anti-HIV effects of three nucleosides; also recorded: synergistic effect against HIV replication” in data set [1] (H9, listed as 1). The EC50 was 2.8 µg/mL in data set [1] (Human immunodeficiency virus 1, H9, Table 5, combinations with 4 μg/ml suksdorfin, read-out: EC50) and 1.5 to 2.8 µg/mL in data set [1] (Human immunodeficiency virus 1, H9, later value, read-out: EC50 (value after increase)). Also, the IC50 is 2.8 µg/mL in data set [1] (Human immunodeficiency virus 1, H9, Table 16, concentration which inhibits viral replication by 50%, combinations with 4 μg/ml suksdorfin, read-out: IC50 (μM)^b) and over 20 µg/mL in data set [4]. Also, the inhibition (usually the relative decrease from the control value, in per cent) at 4 µg/mL in data set [1] (Human immunodeficiency virus 1, 4 μg/ml suksdorfin, H9) was 64%. For the same molecule, the “toxicity to H9 cells” value in data set [2] (20 μg/ml) is “toxic to H9 cells”.
